T1: alpha-factor, P01149
T1 chain: WHWLQLKPGQPMY


Experiments:
[1] = tested on: HaCaT (HCT, EpCAM+) cells; test: Cell-specific apoptosis rate in mixed HaCaT/Jurkat cell cultures (biocytometry readout); format: cell-based
Description: The presently described biocytometry was evaluated for measuring cell-specific apoptosis in mixed cell cultures. Despite the growing trend toward studying apoptosis in complex biological systems such as organoids and mixed cell cultures, conventional methods such as Caspase-based assays and MTT tests still yield limited sensitivity and quantify only aggregate apoptosis levels. To assess cell-specific apoptosis, mixed cultures of HaCaT (HCT, EpCAM+) and Jurkat (JUR, EpCAM−) cells at varied ratios (1:0 to 1:8) were utilized. Cells were cultured at a density of 40,000 cells/well in RPMI medium supplemented with 10% FBS and either subjected to 1 mM DTT treatment or left untreated. Following a 2.5-hour incubation at 37° C. in a 5% CO2 atmosphere, both total and apoptotic HaCaT cell counts were established using BIOS(EpCAM) and BIOS (EpCAM+PS), adhering to the biocytometry protocol. A noticeable reduction in total EpCAM+ cell count was evident in induced cell cultures, alongside an increase in the number of apoptotic EpCAM+ cells, aligning with the anticipated apoptotic changes (FIG. 12A). Apoptotic rates were calculated by normalizing BIOS(EpCAM+PS) counts to total cell counts from BIOS(EpCAM). […]

alpha-factor, P01149 = biological target: T1, alpha-factor, P01149

Row | Molecule | increase in apoptotic rates among EpCAM+ cells ([1]; 1 mM DTT vs untreated controls) | apoptotic rate among EpCAM+ cells ([1]; 1 mM DTT, 2.5-hour incubation at 37° C., 1.7% baseline in untreated controls) | degradation of alpha-factor; activation threshold of the biosensors (alpha-factor, P01149)
1 | O[C@@H](CS)[C@@H](O)CS [DTT] | 7.2 fold | 12.2% | 
2 | BAR1 protease of BAR1 computing units (protein) LTNDGTGHLEFLLQHEEEMYYATTLDIGTPSQSLTVLFDTGSADFWVMDSSNPFCLPNSNTSSYSNATYNGEEVKPSIDCRSMSTYNEHRSSTYQYLENGRFYITYADGTFADGSWGTETVSINGIDIPNIQFGVAKYATTPVSGVLGIGFPRRESVKGYEGAPNEYYPNFPQILKSEKIIDVVAYSLFLNSPDSGTGSIVFGAIDESKFSGDLFTFPMVNEYPTIVDAPATLAMTIQGLGAQNKSSCEHETFTTTKYPVLLDSGTSLLNAPKVIADKMASFVNASYSEEEGIYILDCPVSVGDVEYNFDFGDLQISVPLSSLILSPETEGSYCGFAVQPTNDSMVLGDVFLSSAYVVFDLDNYKISLAQANWNASEVSKKLVNIQTDGSISGAKIATAEPWSTNEPFTVTSDIYSSTGCKSRPFLQSSTASSLIAETNVQSRNCSTKMPGTRSTTVLSKPTQNSAMHQSTGAVTQTSNETKLELSSTMANSGSVSLPTSNSIDKEFEHSKSQTTSDPSVAEHSTFNQTFVHETKYRPTHKTVITETVTKYSTVLINVCKPTY |  |  | effectively degraded alpha-factor, raising the activation threshold of the biosensors

Reference: patent US20260227397A1, “METHODS AND SYSTEMS OF PROFILING WITH BIOLOGICAL COMPUTING CELLS” (XENO CELL INNOVATIONS S.R.O., priority 2023, published 2026)
